Assay in all cases: inhibition of tumour cell growth, NCI panel, 48 h
The subject of experiment [1] is 786-0 renal.
For experiment [2], the system named is COLO 205 colon.
For experiment [3], the system named is DU-145 prostate.
Experiment [4] relates to HCT-116 colon.
The test system of experiment [5] is M14 melanoma.
In experiment [6] the test system is MDA-N.
Experiment [7] has as its system MOLT-4 leukemia.
Experiment [8] has as its system NCI-H460 lung.
Experiment [9] concerns OVCAR-5 ovarian.
Experiment [10] deals with SR leukemia.
Experiment [11] has as its system UACC-62 melanoma.
For experiment [12], the system named is UO-31 renal.
The subject of experiment [13] is HS 578T breast.
Experiment [14] deals with SF-268 CNS.
The test system of experiment [15] is SF-539 CNS.
For experiment [16], the system named is UACC-257 melanoma.

Ten compounds from PubChem BioAssay (NCI) can be followed below.

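Following 48 hours of exposure in 96-well plates, responses at five concentrations were used to interpolate endpoints linearly. Definition used: TGI = concentration required for complete inhibition of growth.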 A value given as a limit tells only on which side of the number the result lay.

Regarding `CC(=O)N1N=C(c2ccccc2Nc2ccccc2C2=NN(C(C)=O)C(c3ccccc3)O2)OC1c1ccccc1` (stereo not drawn), the TGI in experiment [1], in [2], in [3], in experiment [4], in experiment [5] and in experiment [6] was above 100 µM in each case. Besides, the TGI in experiment [7], in experiment [8], in experiment [9], in experiment [10], in experiment [11] and in experiment [12] was above 100 µM throughout.

On to `COc1ccc(N2C(=O)C(C#N)=C(SC)C(C#N)C2=O)cc1` (stereo not drawn), for which the TGI was above 100 µM in [1]; above 100 µM in experiment [2]; above 100 µM in experiment [4]; 89.8 µM in experiment [13]; above 100 µM in experiment [5]; above 100 µM in [6]. Moreover, the TGI in experiment [7], in [8], in [9], in [14], in [15] and in [16] was above 100 µM throughout. Also, the TGI in [11] was above 100 µM.

Consider `COC(=O)C(=O)c1cc2ccccc2n1S(=O)(=O)c1ccccc1`, for which the TGI in [1], in [2], in experiment [3], in experiment [4], in [5] and in experiment [6] was above 100 µM throughout. The TGI in [7], in experiment [8], in experiment [9], in [14], in experiment [15] and in experiment [10] was above 100 µM each time. Further, the TGI in [16], in experiment [11] and in experiment [12] was above 100 µM throughout.

As to `CC(=O)C1=C(C)N(c2ccc(C)cc2)C2(O)C=CC(=O)C3=C(O)c4ccccc4C(=O)C312` (stereo not drawn), the TGI in experiment [1], in experiment [2], in experiment [3], in [4], in [13] and in experiment [5] was above 100 µM in each case. The TGI was above 100 µM in experiment [7]; above 100 µM in [8]; 56.2 µM in [9]; 62.4 µM in [14]; 97.6 µM in experiment [15]; above 100 µM in experiment [10]. Moreover, the figures for the TGI in [16], in [11] and in experiment [12] were 27.1 µM, 27.4 µM and 34.8 µM, respectively.

Take `CC1=C(S(=O)c2ccc(C)cc2)CCC2(CCCCO2)O1` (stereo not drawn): the TGI in [1], in experiment [2], in experiment [3], in [4], in [13] and in [7] was above 100 µM each time. Besides, the TGI in [8], in experiment [9], in [14], in experiment [16], in experiment [11] and in [12] was above 100 µM each time.

Regarding `O=C(Cc1nc2ccc(C(=O)c3ccccc3)cc2[nH]c1=O)C(=O)Nc1ccc(C(F)(F)F)cc1[N+](=O)[O-]`, the TGI in experiment [1], in experiment [2], in experiment [4], in experiment [5], in [7] and in [8] was above 100 µM throughout. In addition, the TGI in experiment [9], in [14], in [15], in experiment [10], in experiment [16] and in experiment [11] was above 100 µM throughout. The TGI in experiment [12] is above 100 µM.

In the case of `Cn1c2c(c3ccccc31)CC(=O)N1CCCC(C1)CC21OCCO1` (stereo not drawn), the TGI in [1], in [2], in experiment [3], in experiment [4], in [5] and in experiment [6] was above 100 µM in each case. The TGI in experiment [7], in [8], in experiment [9], in experiment [14], in experiment [10] and in experiment [16] was above 100 µM throughout. Moreover, the TGI in experiment [11] and in experiment [12] was above 100 µM in each case.

On to `COC1=CCC2=C(CCN(C(=O)C3CC3)C2Cc2ccc(OC)c(O)c2)C1` (stereo not drawn), for which the TGI in experiment [1], in experiment [2], in experiment [3], in [4], in experiment [13] and in experiment [5] was above 100 µM in each case. The TGI in experiment [7] was above 100 µM; in experiment [8], above 100 µM; in [9], above 100 µM; in experiment [14] it was above 100 µM; in [15], above 100 µM; in experiment [10], 82.6 µM. For the same compound, the TGI in experiment [16], in [11] and in [12] was above 100 µM in each case.

Turning to `CCCC1=NC(C(F)(F)F)(C(F)(F)F)N=C(N2CCOCC2)O1`, the TGI in [1], in [2], in [3], in experiment [4], in [13] and in [5] was above 100 µM in each case. The TGI in [7], in [9], in experiment [14], in experiment [15], in [10] and in [16] was above 100 µM each time. For the same compound, the TGI in experiment [11] and in [12] was above 100 µM each time.

On to `c1csc(-c2sc(-c3ccsc3)cc2Cc2ccsc2)c1`, for which the TGI in experiment [1], in experiment [2], in experiment [3], in [5], in [6] and in experiment [7] was above 10 µM each time. The TGI in experiment [14], in experiment [10], in experiment [16] and in experiment [11] was above 10 µM in each case.
